Experimental data reported in PMC8954220, “Sparsomycin Exhibits Potent Antiplasmodial Activity In Vitro and In Vivo” (Pharmaceutics, 2022).
Like-named read-outs stand apart in the source and are kept apart here. Blank lines part the entries; values can stand above or below the compound they belong to.

Key:
P. falciparum K1 = assay: SYBR Green I-based fluorescence in vitro growth inhibition assay; format: cell-based, Plasmodium falciparum; conditions: for IC50: Plasmodium falciparum, read-out: IC50 P. falciparum K1
Experimental: (§1) P. falciparum strains 3D7 and K1 were cultivated in 2% washed human O-positive erythrocytes (supplied by Japanese Red Cross Society, Hokkaido, Japan) using a multi-gas incubator (37 °C, 5% CO2 and 5% O2).
(§2) Briefly, test compounds were diluted in complete medium to eight desired concentrations (2-fold serial dilution). […] Next, 50 μL of synchronous parasites at 0.5% parasitemia and 2% hematocrit was seeded in a 96-well plate containing 50 μL of test compounds. The 96-well plate was incubated for 72 h at 37 °C, 5% CO2 and 5% O2. Next, 100 μL of lysis buffer containing 0.02% (v/v) SYBR Green I was added to each well and mixed and then the 96-well plate was incubated at room temperature for 2 h in the dark. […] Erythrocytes treated with 1% DMSO were used as a negative control and wells containing only test compounds and erythrocytes were used to correct background signals. In at least three independent trials, the inhibition assay was performed in quadruplicate for each concentration.

P. falciparum 3D7 [1] = assay: as above; format: cell-based, Plasmodium falciparum; conditions: for IC50: Plasmodium falciparum, read-out: IC50 P. falciparum 3D7
Experimental: as §1, §2

[2] = In vitro cytotoxicity, cell viability assay (CCK-8); conditions: human, human foreskin fibroblasts (HFFs)
Experimental: A cell viability assay was used to evaluate the cytotoxic action of Sm as described previously [18]. Briefly, a 100 μL cell suspension was seeded in a 96-well plate at a concentration of 1 × 10^5 cells/mL in DMEM containing 10% FBS and incubated for 48 h at 37 °C and 5% CO2. Next, 2-fold dilutions (total of eight concentrations) of test compounds in DMEM were added in quadruplicate to each well and incubated for an additional 72 h.
Data were analyzed using GraphPad Prism 8 (GraphPad Software, Inc., La Jolla, CA, USA). IC50 or CC50 values were calculated from three independent experiments using a non-linear regression fit to logarithm concentration value of the compound versus inhibition percentage of parasite or cell growth, respectively.

P. falciparum 3D7 [3] = assay: Microscopic analysis of parasitemia and morphology (Giemsa-stained thin blood smears); format: cell-based, Plasmodium falciparum
Experimental: The parasites were tightly synchronized using a two-step sorbitol treatment protocol and used at the ring stage with 0.5% parasitemia and 2% hematocrit. Sm (50 and 10 nM) in complete medium and 1% DMSO in complete medium were used as the treated and untreated groups, respectively, in this assay. Subsequently, the Giemsa-stained thin blood smears of each treatment group were prepared after 1, 24, 48, or 72 h of incubation. After 72 h, incubation was continued after changing the medium in either the presence (unwashed group) or absence (washed group) of Sm for up to 144 h. Subsequently, the Giemsa-stained thin blood smears of each treatment group were prepared at 96, 120 and 144 h. The blood smears were observed using a BZ-900 all-in-one microscope (Keyence BioRevo, Tokyo, Japan). The parasitemia levels were determined by enumerating the number of infected erythrocytes in relation to uninfected erythrocytes (a minimum of 500 cells were counted). The assay was performed in triplicate for each concentration and time point.

P. berghei ANKA = assay: Complicated rodent malaria model, survival (Peters' 4-day test or 7-day regimen); format: in vivo, C57BL/6 J mice; conditions: up to 25 dpi
Experimental: Male C57BL/6 J mice (8 weeks old with body weight of 20–25 g; six mice per group) were purchased from Japan CLEA (Tokyo, Japan). The mice were allowed free access to water and food (CLEA Rodent Diet CE-2; Japan CLEA, Tokyo, Japan). The room temperature (24 °C), relative humidity (50%) and lighting (light from 8 a.m. to 8 p.m.) were adjusted and controlled. P. yoelii 17XNL and P. berghei ANKA were recovered from frozen packed erythrocyte stocks via passage in mice following intraperitoneal (i.p.) injection. Challenge experiments were performed with i.p. injections of 1 × 10^7 fresh infected erythrocytes from donor mice (designated as 0 days post-infection (dpi)). Approximately 2 h after the injection, 2 μL of blood was collected from the tip of the mice’s tail and the parasitemia levels were checked using Giemsa-stained thin blood smears. When the parasitemia level reached 1%, the infected mice were intraperitoneally treated with vehicle (1 × PBS) or Sm at a dose of 100 or 300 μg/kg (modified from reported IC50 in Ref. [22]) once daily for 7 days (0–6 dpi; modified Peters’ test) for P. yoelii 17XNL and 300 μg/kg once daily for 4 (0–3 dpi; Peters’ 4-day test) or 7 days (0–6 dpi, [23]) for P. berghei ANKA. The survival and clinical signs of mice were monitored daily after infection. […]

[4] = Erythrocyte hemolysis assay; format: cell-based; conditions: human, 3 h at 37 °C, mean ± SD, read-out: RBC Hemolysis Rate (%) at 100 μM
Experimental: An erythrocyte hemolysis assay was performed as previously described [21]. Briefly, 100 μL of each compound (final concentration, 100 μM) in 1× phosphate-buffered saline (PBS) was seeded in a 96-well plate and 100 μL of a 3% erythrocyte suspension in PBS was added. The plate was incubated for 3 h at 37 °C, 5% CO2 and 5% O2 and then centrifuged at 1300× g for 5 min. Subsequently, 100 μL of the supernatant of each mixture was transferred to a new 96-well plate and the absorbance was recorded at 540 nm. […] The erythrocyte hemolysis rate was calculated using the following formula: hemolysis rate = ([Asample − Anegative control]/[Apositive control − Anegative control] × 100), where A is absorbance [21]. The experiments were performed in triplicate and repeated three times independently.

mice = conditions: i.p. administration; cited from earlier work
retinas of animals = test system: retinas of animals; design: method as in PMID 3310108; conditions: animals treated with toxic doses; cited from earlier work
P. yoelii 17XNL = assay: Uncomplicated rodent malaria model, 7-day treatment (modified Peters' test); format: in vivo, C57BL/6 J mice
Experimental: Male C57BL/6 J mice (8 weeks old with body weight of 20–25 g; six mice per group) were purchased from Japan CLEA (Tokyo, Japan). The mice were allowed free access to water and food (CLEA Rodent Diet CE-2; Japan CLEA, Tokyo, Japan). The room temperature (24 °C), relative humidity (50%) and lighting (light from 8 a.m. to 8 p.m.) were adjusted and controlled. P. yoelii 17XNL and P. berghei ANKA were recovered from frozen packed erythrocyte stocks via passage in mice following intraperitoneal (i.p.) injection. Challenge experiments were performed with i.p. injections of 1 × 10^7 fresh infected erythrocytes from donor mice (designated as 0 days post-infection (dpi)). Approximately 2 h after the injection, 2 μL of blood was collected from the tip of the mice’s tail and the parasitemia levels were checked using Giemsa-stained thin blood smears. When the parasitemia level reached 1%, the infected mice were intraperitoneally treated with vehicle (1 × PBS) or Sm at a dose of 100 or 300 μg/kg (modified from reported IC50 in Ref. [22]) once daily for 7 days (0–6 dpi; modified Peters’ test) for P. yoelii 17XNL and 300 μg/kg once daily for 4 (0–3 dpi; Peters’ 4-day test) or 7 days (0–6 dpi, [23]) for P. berghei ANKA. The survival and clinical signs of mice were monitored daily after infection. Mice with high clinical signs (arched back, immobility, >20% body weight loss and pain sign) were euthanized immediately. Parasitemia in P. yoelii 17XNL-infected mice was observed daily using Giemsa-stained thin blood smears (up to 30 dpi).
A p-value of <0.05 was considered statistically significant and is shown as an asterisk or a symbol, defined in each table/figure legend together with the name of the test used.

[5] = test system: patients (with advanced carcinoma); design: method as in PMID 5928140; conditions: daily doses; after 13 days (total dose 0.24 mg/kg) and 15 days (total dose 0.15 mg/kg); cited from earlier work

IC50 (P. falciparum K1; K1, 72 h exposure, mean ± SD of three independent experiments): 19.9 ± 1.51 nM
IC50 (P. falciparum 3D7 [1]; 3D7, 72 h exposure, mean ± SD of three independent experiments): 13.2 ± 2.66 nM
SMILES: C[C@@H]1CC[C@H]2[C@@H](C)C(=O)O[C@@H]3O[C@@]4(C)CC[C@@H]1[C@]32OO4 [Artemisinin, artemisinin, reference compound]

SMILES: CCN(CC)CCCC(C)Nc1ccnc2cc(Cl)ccc12 (stereo not drawn) [Chloroquine, Chloroquine diphosphate, reference compound]
IC50 (P. falciparum K1; K1, 72 h): 740 ± 95.7 nM
IC50 (P. falciparum 3D7 [1]; 3D7, 72 h): 26.2 ± 3.66 nM

SMILES: CSC[S@+]([O-])C[C@H](CO)NC(=O)/C=C/c1c(C)[nH]c(=O)[nH]c1=O [Sparsomycin, sparsomycin]
CC50 at 72 h [2]: 1140 ± 30 nM
Parasite morphology (P. falciparum 3D7 [3]; 50 nM for 72 h): induced morphological alterations, including shrinkage
Parasitemia levels along the incubation period (P. falciparum 3D7 [3]; 10 or 50 nM, 1–72 h): not increased
Parasite life cycle stage under exposure (P. falciparum 3D7 [3]; 10 or 50 nM, 1–72 h of incubation, ring-stage synchronized): blocked in the ring stage
Parasite growth after removal of compound (washed group) (P. falciparum 3D7 [3]; 72 h exposure to 10 or 50 nM, then further 72 h without compound (up to 144 h)): not restored
Prolongation of survival (P. berghei ANKA; 300 μg/kg i.p. once daily for 4 days, significant (p < 0.05)): 33.33%
Prolongation of survival (P. berghei ANKA; 300 μg/kg i.p. once daily for 7 days, statistically insignificant (p > 0.05)): 33.33%
hemolysis at 3 h, 100 µM [4]: 1.04 ± 0.23%
LD50 (mice): 170 to 380 μg/kg per injection
IC50 (P. falciparum K1; K1, 72 h): 25.4 ± 8.15 nM
Resistance Index (P. falciparum K1; ratio between the IC50 values of P. falciparum K1 and 3D7): 2.1
SI for P. falciparum K1 (P. falciparum K1; selectivity index, ratio between IC50 (K1) and CC50 (HFF)): 44.83
IC50 (P. falciparum 3D7 [1]; 3D7, 72 h): 12.1 ± 4.41 nM
SI for P. falciparum 3D7 (P. falciparum 3D7 [1]; selectivity index, ratio between IC50 (3D7) and CC50 (HFF)): 94.45
Pathological changes in the retinas (retinas of animals): no observable pathological changes
Parasitemia levels versus control (P. yoelii 17XNL; 100 μg/kg i.p. once daily for 7 days): did not significantly alter
Parasitemia versus control (P. yoelii 17XNL; 300 μg/kg i.p. once daily for 7 days): significantly reduced
Parasitemia peak (P. yoelii 17XNL; 300 μg/kg i.p. once daily for 7 days, peak at 11 dpi, control 40.13% (12 dpi)): 18.85%
Mortality (P. yoelii 17XNL; 100 or 300 μg/kg i.p. once daily for 7 days, up to 30 dpi): No mortality
Patients developing ring scotoma (Sm-related retinopathy) [5]: two out of five patients
